Measurements from patent US10494363B2, “Non-steroidal glucocorticoid receptor modulators for local drug delivery” (LEO PHARMA A/S, priority 2015, dated 2019).

Columns and labels:
[1] = system: TNF alpha release from human PBMCs; assay: Inhibition of TNF alpha release from human PBMCs; format: cell-based; conditions: LPS 1 μg/ml, 18 hours, AlphaLISA
In short: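 Fresh or thawed PBMCs in serum-free medium with 0.5% HSA, stimulated with 1 μg/ml LPS plus titrated compound for 18 h at 37° C. TNF-a in supernatant by AlphaLISA; window set with a reference PDE4 inhibitor at 100×IC50. EC50 and Emax from sigmoidal fits.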

[2] = molecular target: T1, glucocorticoid receptor (GR), recombinant full-length receptor protein (Homo sapiens, UniProt P04150); assay: Glucocorticoid receptor binding assay (fluorescence polarization kit); conditions: 4 nM receptor, 2.5 nM Fluormone GS1 tracer, 2h room temperature, read-out: GR binding ABS IC50
T1 construct: 4 nM recombinant, full-length receptor protein was incubated with increasing concentrations of GR ligand; purchased Life Technologies A-15897
T1 sequence (P04150 1-777): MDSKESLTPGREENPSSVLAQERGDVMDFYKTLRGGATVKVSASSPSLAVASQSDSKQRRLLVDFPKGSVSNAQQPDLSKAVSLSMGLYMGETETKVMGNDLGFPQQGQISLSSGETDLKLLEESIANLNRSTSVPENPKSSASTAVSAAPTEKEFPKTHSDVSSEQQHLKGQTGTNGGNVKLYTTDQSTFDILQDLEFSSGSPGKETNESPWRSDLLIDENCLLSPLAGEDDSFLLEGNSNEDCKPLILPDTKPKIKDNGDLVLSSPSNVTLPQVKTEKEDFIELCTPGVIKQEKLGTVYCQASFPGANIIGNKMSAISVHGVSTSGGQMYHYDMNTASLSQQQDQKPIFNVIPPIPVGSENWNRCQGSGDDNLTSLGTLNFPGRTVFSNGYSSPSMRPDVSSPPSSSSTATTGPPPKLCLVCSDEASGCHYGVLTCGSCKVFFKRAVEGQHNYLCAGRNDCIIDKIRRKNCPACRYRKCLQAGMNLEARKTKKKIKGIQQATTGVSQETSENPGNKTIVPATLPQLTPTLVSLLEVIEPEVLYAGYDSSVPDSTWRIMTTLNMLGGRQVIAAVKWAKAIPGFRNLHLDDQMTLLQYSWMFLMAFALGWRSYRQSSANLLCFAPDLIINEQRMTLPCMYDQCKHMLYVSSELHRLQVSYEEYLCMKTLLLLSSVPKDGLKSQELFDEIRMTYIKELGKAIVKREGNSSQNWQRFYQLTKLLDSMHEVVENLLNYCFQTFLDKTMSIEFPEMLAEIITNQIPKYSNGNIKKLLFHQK
Description: Test compounds were diluted in DMSO over seven orders of magnitude, further diluted in assay buffer and distributed into 384-well plates. The sensitivity limit of this assay was 2-4 nM.
Data were processed by sigmoidal curve fitting.
Absolute (Abs) IC50 and Emax were determined from the curve fits.

[3] = Human liver microsomes (HLM) assay; format: in vitro ADME; conditions: hepatic extraction ratio; 0.5 μM compound, 0.5 mg/mL microsomes, NADPH, 37° C.
In short: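 Compound at 0.5 μM incubated at 37° C. with human liver microsomes (0.5 mg/mL) and NADPH (1 mM) in phosphate buffer pH 7.4, 1% organic solvent; sampled 0-30 minutes. Clapp (mL/min/kg) and Eh (%) derived from depletion rate constant.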

SMILES	IC50 [2]	HLM assay Eh (%) [3]	EC50 ([1]; PBMC)	EC50 [1]
C[C@H](NC(=O)c1cnco1)[C@H](Oc1ccc(C(=O)O[C@H]2CCCN(C(=O)[C@H]3COC(=O)C3)C2)cc1)c1ccc(C2CC2)cc1 [Compound 50, [(3S)-1-[(3R)-5-oxotetrahydrofuran-3-carbonyl]-3-piperidyl] 4-[(1R,2S)-1-(4-cyclopropylphenyl)-2-(oxazole-5-carbonylamino)propoxy]benzoate]	< 100 nM	* (extraction ratio (Eh)>90%)	< 100 nM	
C[C@H](NC(=O)c1ccon1)[C@H](Oc1ccc(C(=O)O[C@H]2CCCN(C(=O)[C@H]3COC(=O)C3)C2)cc1)c1ccc(C2CC2)cc1 [Compound 51, [(3S)-1-[(3R)-5-oxotetrahydrofuran-3-carbonyl]-3-piperidyl] 4-[(1R,2S)-1-(4-cyclopropylphenyl)-2-(isoxazole-3-carbonylamino)propoxy]benzoate]	< 100 nM	* (extraction ratio (Eh)>90%)	< 100 nM	
C[C@H](NC(=O)c1csnn1)[C@H](Oc1ccc(C(=O)O[C@H]2CCCN(C(=O)[C@H]3COC(=O)C3)C2)cc1)c1ccc(C2CC2)cc1 [Compound 52, [(3S)-1-[(3R)-5-oxotetrahydrofuran-3-carbonyl]-3-piperidyl] 4-[(1R,2S)-1-(4-cyclopropylphenyl)-2-(thiadiazole-4-carbonylamino)propoxy]benzoate]	< 100 nM	* (extraction ratio (Eh)>90%)		< 100 nM
Cc1cc(C(=O)N[C@@H](C)[C@H](Oc2ccc(C(=O)O[C@H]3CCCN(C(=O)[C@H]4COC(=O)C4)C3)cc2)c2ccc(C3CC3)cc2)no1 [Compound 53, [(3S)-1-[(3R)-5-oxotetrahydrofuran-3-carbonyl]-3-piperidyl] 4-[(1R,2S)-1-(4-cyclopropylphenyl)-2-[(5-methylisoxazole-3-carbonyl)amino]propoxy]benzoate]	< 100 nM	* (extraction ratio (Eh)>90%)	< 100 nM	
C[C@H](NC(=O)c1ccno1)[C@H](Oc1ccc(C(=O)O[C@H]2CCCN(C(=O)[C@H]3COC(=O)C3)C2)cc1)c1ccc(C2CC2)cc1 [Compound 54, [(3S)-1-[(3R)-5-oxotetrahydrofuran-3-carbonyl]-3-piperidyl] 4-[(1R,2S)-1-(4-cyclopropylphenyl)-2-(isoxazole-5-carbonylamino)propoxy]benzoate]	< 100 nM	* (extraction ratio (Eh)>90%)	< 100 nM	

Continued, in another order:

IC50 [2]	HLM assay Eh (%) [3]	SMILES	EC50 ([1]; PBMC)	EC50 [1]
< 100 nM	* (extraction ratio (Eh)>90%)	C[C@H](NC(=O)c1cscn1)[C@H](Oc1ccc(C(=O)O[C@H]2CCCN(C(=O)[C@H]3COC(=O)C3)C2)cc1)c1ccc(C2CC2)cc1 [Compound 55, [(3S)-1-[(3R)-5-oxotetrahydrofuran-3-carbonyl]-3-piperidyl] 4-[(1R,2S)-1-(4-cyclopropylphenyl)-2-(thiazole-4-carbonylamino)propoxy]benzoate]	< 100 nM	
< 100 nM	* (extraction ratio (Eh)>90%)	Cc1noc(C(=O)N[C@@H](C)[C@H](Oc2ccc(C(=O)O[C@H]3CCCN(C(=O)[C@H]4COC(=O)C4)C3)cc2)c2ccc(C3CC3)cc2)n1 [Compound 56, [(3S)-1-[(3R)-5-oxotetrahydrofuran-3-carbonyl]-3-piperidyl] 4-[(1R,2S)-1-(4-cyclopropylphenyl)-2-[(3-methyl-1,2,4-oxadiazole-5-carbonyl)amino]propoxy]benzoate]	< 100 nM	
< 100 nM	* (extraction ratio (Eh)>90%)	C[C@H](NC(=O)c1ccn(C)n1)[C@H](Oc1ccc(C(=O)O[C@H]2CCCN(C(=O)[C@H]3COC(=O)C3)C2)cc1)c1ccc(C2CC2)cc1 [Compound 57, [(3S)-1-[(3R)-5-oxotetrahydrofuran-3-carbonyl]-3-piperidyl] 4-[(1R,2S)-1-(4-cyclopropylphenyl)-2-[(1-methylpyrazole-3-carbonyl)amino]propoxy]benzoate]	< 100 nM	
< 100 nM	* (extraction ratio (Eh)>90%)	C[C@H](NC(=O)C(C)(F)F)[C@H](Oc1ccc(C(=O)O[C@H]2CCCN(C(=O)[C@H]3COC(=O)C3)C2)cc1)c1ccc(C2CC2)cc1 [Compound 58, [(3S)-1-[(3R)-5-oxotetrahydrofuran-3-carbonyl]-3-piperidyl] 4-[(1R,2S)-1-(4-cyclopropylphenyl)-2-(2,2-difluoropropanoylamino)propoxy]benzoate]	< 100 nM	
< 100 nM	* (extraction ratio (Eh)>90%)	CCc1ccc([C@@H](Oc2ccc(C(=O)N[C@H]3CCCN(C(=O)[C@H]4COC(=O)C4)C3)nc2)[C@H](C)NC(=O)C(F)(F)F)cc1 [Compound 66, 5-[(1R,2S)-1-(4-ethylphenyl)-2-[(2,2,2-trifluoroacetyl)amino]propoxy]-N-[(3S)-1-[(3R)-5-oxotetrahydrofuran-3-carbonyl]-3-piperidyl]pyridine-2-carboxamide]	< 100 nM	
